For three molecules, Normal melting temperature results are on record in the NIST ThermoML archive (doi:10.1016/j.fluid.2007.07.065).

For the data set the following is noted: Crystal; Heating/Cooling curves.

± gives the expanded uncertainty stated by the source.

`CC(=O)O` [acetic acid]: the Normal melting temperature was 16.69 ± 0.1 °C.
With `NC=O` [formamide] the figure was 2.39 ± 0.1 °C; with `CCC(=O)O` [propanoic acid], -20.61 ± 0.1 °C.
